Data from paper PMC9304322, “Targeting retinoic acid receptor alpha-corepressor interaction activates chaperone-mediated autophagy and protects against retinal degeneration” (Nature Communications, 2022).
Values joined by “and” are separate entries in the source; they are usually repeats but may differ in a detail not shown here. Identical values can stand only once.

How the values were obtained:
[1] = target: T1, RARα and the N-CoR1 peptide (Homo sapiens, UniProt P10276); assay: Fluorescence polarization binding assay, RARα LBD and FITC-N-CoR1 peptide; settings: 10 μΜ compound
T1 construct: human RARα (residues 176-421); His6-SUMO (N, cleaved yes); made in house; host or cells: Escherichia coli BL21(DE3) RIL
Method: The ligand binding domain (LBD) of the human RARα (residues 176-421) was fused to a preceding His6-SUMO tag separated by a ubiquitin-like protease (ULP1) cleavage site and was expressed in Escherichia coli BL21(DE3) RIL cell strain. Cells were grown at 37 °C in LB medium supplemented with 50 µg/mL kanamycin until OD600 reached about 0.8. Expression of T7 polymerase was induced by addition of isopropyl-b-d-thiogalactoside (IPTG, #10724815001) to a final concentration of 0.8 mM and cells were incubated at 20 °C overnight. Cell cultures were harvested by centrifugation at 8,000 × g for 15 mins. The cell pellet from 1 liter of LB growth was resuspended in 50 mL lysis buffer (20 mM Tris-HCl pH 8, 500 mM NaCl, 25 mM imidazole) supplemented with one complete™, EDTA-free protease inhibitor tablet (Roche Applied Science, #11873580001). The suspension was lysed using a high pressure homogenizer and centrifuged at 35,000 × g at 4 °C for 45 minutes. […]
The fluorescein-tagged peptide of N-CoR1, FITC-Ahx-[…] […] Fluorescence polarization assays (FPA) were performed using established procedures. […] Fluorescence polarization was measured at 30 min on a F200 PRO microplate reader (TECAN) with the excitation wavelength set at 470 nm and emission measured at 530 nm. EC50 values were calculated by nonlinear regression analysis of competitive binding curves using GraphPad Prism software.

lamp2a mRNA = lamp2a mRNA in hippocampus of treated KFERQ-Dendra mice; format: in vivo, mouse; settings: for Fig. 3e value relative to Vehicle: single replicate values, one sample t test; for mRNA levels of lamp2a (Fig. 4d), individual mice / mRNA levels of lamp2a (Fig. 4d), mean: hippocampus, i.p. 30 mg/kg bw daily for three days, vehicle mean = 1.000; for mRNA levels of lamp2a (Fig. 4d), individual mice: 30 mg/kg; for mRNA levels of lamp2a (Fig. 4d), mean: n = 4 mice
Method: C57BL/6 J mice wild-type (WT) and homozygous for the Pde6 mutation (rd10 mouse model of retinal degeneration) were obtained from The Jackson Laboratory and experiments were performed at the age indicated in each part of the study. C57BL/6 KFERQ-Dendra mice were generated by back-crossing FVB KFERQ-Dendra mice with wild-type C57BL/6 mice for 8 generations. Both male and female animals were used in this study in equally distribution groups. However, results from both sexes were pooled, because of absence of significant differences in any of the parameters analyzed after statistical analysis with a mixed model of two-way ANOVA sex and treatment as independent variables and the corresponding measure as dependent variable. All animals were housed in a barrier-controlled facility (19–23 °C 30–60% relative humidity; 12 h light/dark cycle) with ad libitum access to standard chow pellets (protein 19 gm%/carbohydrate 67 gm%/fat 4 gm%) and water. For animal administration of CA compounds, a formula containing 30% PEG 400 (Sigma, #8.0745), 65% of 5% glucose solution, 5% Tween 80 (Sigma, #P1754) was used to dissolve them. CA compounds were prepared freshly by adding 5% DMSO and sonicating for 1 h. Treatment of KFERQ-Dendra mice with the CA compounds was done at 4 months of age by i.p. daily injection of 30 mg/kg bw or vehicle for three consecutive days and tissues collected 6 h after the last injection. In the case of rd10 mice, animals were daily injected from P18 to P25 with CA77 (40 mg/kg bw). In the case of intravitreal administration, a single intravitreal injection was applied at P18 with CA77 (40 µM) in DMSO/PBS and the contralateral eye was injected with PBS and DMSO at same concentration. At P26, mice were sacrificed and eyes fixed overnight with 4% PFA (Sigma, #P6148) in PBS at 4 °C for immunofluorescence or retinas dissected and immediately frozen for biochemistry. Distribution of animals in the vehicle or treatment group was done randomly. ICR (CD-1) outbred 3 months old male mice from ENVIGO were used for the pharmacokinetic studies (see pharmacokinetic section for housing and handling details). All animal studies and procedures complied with ethical regulations, were performed in accordance with the European Union guidelines and the ARVO Statement for the Use of Animals in Ophthalmic and Vision Research and were approved by the Institutional Animal Care and Use Committee at the Albert Einstein College of Medicine, the CSIC Bioetica Comite and approved by the Comunidad de Madrid, PROEX232/17.
RNA was extracted from individual retinas or tissue sections (brain, liver). Total RNA from retinas was extracted using TRIzol Reagent (Invitrogen, # 15596-018), and reverse transcription was performed using the High-Capacity cDNA Reverse Transcription Kit (Applied Biosystems, # 4374966) according to the manufacturer’s instructions. Quantitative real-time PCR was performed in a Light Cycler 480 Instrument (Roche) with Taqman LightCycler 480 probes Master Mix (Roche, #4887301001) using Taqman assays (Life Technologies). For cells in culture, RNA was extracted using RNeasy Plus Mini Kit (Qiagen, #74034), and reverse transcription was performed using Superscript III (Invitrogen, #18080051). Quantitative RT-PCR analysis were performed using Power SYBR Green PCR Master Mix (Applied Biosystems, #4368708) on a StepOne Plus Real-Time PCR System (Applied Biosystems). Mm01184405_m1 probe (Thermofisher) was used for rhodopsin and the sequence of all the other probes used for qPCR is included in Supplementary Table 2.

T1 sequence (P10276 176-421, other chains not shown): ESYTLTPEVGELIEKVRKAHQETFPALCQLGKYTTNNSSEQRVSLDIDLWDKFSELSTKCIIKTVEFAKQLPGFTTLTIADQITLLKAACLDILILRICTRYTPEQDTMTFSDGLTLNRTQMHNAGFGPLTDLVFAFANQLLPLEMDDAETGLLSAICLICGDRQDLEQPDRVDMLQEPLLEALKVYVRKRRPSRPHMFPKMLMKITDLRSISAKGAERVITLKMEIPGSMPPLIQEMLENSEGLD

Compound	N-CoR1 peptide binding to RARα in fluorescence polarization assays [1]	Fig. 3e value relative to Vehicle (lamp2a mRNA)	mRNA levels of lamp2a (Fig. 4d), individual mice (lamp2a mRNA)	mRNA levels of lamp2a (Fig. 4d), mean (lamp2a mRNA)
Clc1ccc2c(c1)OCC(c1ccc(-c3ccccc3)cc1)=N2 [CA39]	enhanced N-CoR1 peptide binding to RARα	1.07 and 1.28 and 1.20 and 1.32 and 1.95 and 2.13	1.581 and 1.814 and 1.628 and 1.163	1.547
CC(=O)Nc1ccc(C2=Nc3ccc(Cl)cc3OC2)cc1 [CA77]	enhanced N-CoR1 peptide binding to RARα	2.04 and 2.28 and 1.87 and 1.53 and 2.54 and 2.31	1.395 and 1.349 and 1.27 and 1.907	1.480
